From article PMC9289672, “Optimization of Antibacterial Activity in Tibetan Swine α-Helix Peptide TP by Site-Directed Mutagenesis” (Frontiers in Microbiology, 2022)
Like-named read-outs stand apart in the source and are kept apart here. Where no end group is shown, it is not given here.

Columns and labels:
all strains in Table 2 = assay: Geometric mean of MIC and therapeutic index; assay type: cell-based; conditions: MHC/GM; 128 μm used when 50% hemolysis not observed at 128 μm
Description: (§1) The bacteria were cultured overnight in the MHB medium and transferred to the new MHB the next day until the bacteria reached the exponential growth stage. The bacteria were diluted with MHB to 2 × 10^5 CFU/ml. About 50 μl of polypeptide and equal volume of bacterial suspension was added to a 96-well plate to give the final concentration of polypeptide between 1 and 128 μm. The last two columns are negative (MHB only) and positive (bacterial and MHB) controls and incubated at 37°C for 18–24 h. Optical density was measured at an absorbance wavelength of 492 nm using a microplate reader (Tecan GENios F129004, Tecan, Austria). At least three independent measurements were taken. Each trial was conducted two times in parallel. A total of three independent assays were carried out.
Trp is a hydrophobic amino acid with aromatic side chains. It is a special amino acid in peptide design. Previous studies have pointed out that introducing amino acids will also bring toxicity while improving activity. Therefore, at the beginning of the design, we predicted that selecting Trp as hydrophobic amino acid to substitute H-H position would bring certain toxicity to the peptide. Thus, as expected, the introduction of Trp increases the activity and toxicity of these peptides. […] Meanwhile, the virulence of TP(i+4) 1&2&5&6 and TP(i+4) 1&2&6&7 was lower than that of TP(i+4) 1&2&5&7. We infer that the location of hydrophobic centers can effectively reduce peptide toxicity by Trp substitution. For further evaluating the cell selectivity of the peptides, we also calculated the SI which defined as the ratio of MHC to the geometric mean (GM) (Dufourc, [2008]).

[1] = system: IPEC-J2 and HEK 293T cells
Description: (§5) The cytotoxicity of each peptide was assessed with IPEC-J12 and HEK 293T cells. […] Each trial was conducted two times in parallel. A total of three independent assays were carried out.

[2] = system: hRBCs (human red blood cells); assay: Hemolytic activity; conditions: three independent assays, two in parallel
Description: as §5

[3] = system: Escherichia coli ATCC 25922
Description: (§2) The bacteria strains Escherichia coli ATCC 25922, Escherichia coli UB1005, Salmonella typhimurium ATCC 14028, Salmonella typhimurium C7731, Pseudomonas aeruginosa ATCC 27853, Pseudomonas aeruginosa PAO1, Staphylococcus aureus ATCC 29213, Staphylococcus aureus ATCC 25923, Methicillin-resistant Staphylococcus aureus (MRSA) 43300, Enterococcus faecalis ATCC 29212, and Staphylococcus epidermidis ATCC 12228 were obtained from the College of Veterinary Medicine, Northeast Agricultural University (Harbin, China).
as §1

[4] = system: Staphylococcus aureus ATCC 25923
Description: as §2, §1

[5] = system: Methicillin-resistant Staphylococcus aureus (MRSA) 43300; conditions: Methicillin-resistant 43300
Description: as §2, §1

[6] = system: Staphylococcus epidermidis ATCC 12228
Description: as §2, §1

[7] = system: Pseudomonas aeruginosa PAO1
Description: as §2, §1

[8] = system: Salmonella typhimurium C7731; conditions: MHB, bacteria diluted to 2 × 10^5 CFU/ml, peptide 1-128 μm, 37°C 18-24 h, OD 492 nm; three independent assays, two in parallel
Description: as §2, §1

[9] = system: Staphylococcus aureus ATCC 29213
Description: as §2, §1

[10] = system: Pseudomonas aeruginosa ATCC 27853
Description: as §2, §1

Escherichia coli UB1005 = conditions: MHB, bacteria diluted to 2 × 10^5 CFU/ml, peptide 1-128 μm, 37°C 18-24 h, OD 492 nm; three independent assays, two in parallel
Description: as §2, §1

[11] = system: Enterococcus faecalis ATCC 29212
Description: as §2, §1

[12] = system: Salmonella typhimurium ATCC 14028
Description: as §2, §1

Gram-positive bacteria = assay: Geometric mean of MIC and therapeutic index; assay type: cell-based; conditions: MHC/GM; 128 μm used when 50% hemolysis not observed at 128 μm
Description: as §1
(§3) Trp is a hydrophobic amino acid with aromatic side chains. It is a special amino acid in peptide design. Previous studies have pointed out that introducing amino acids will also bring toxicity while improving activity. […] For further evaluating the cell selectivity of the peptides, we also calculated the SI which defined as the ratio of MHC to the geometric mean (GM) (Dufourc, [2008]).

Gram-negative bacteria = assay: Geometric mean of MIC and therapeutic index; assay type: cell-based; conditions: MHC/GM; 128 μm used when 50% hemolysis not observed at 128 μm
Description: as §1, §3

[13] = system: hRBCs (human red blood cells)
Description: as §5

E. coli 25922 = assay type: cell-based, Escherichia coli; conditions: 25922, 4 h
Description: (§4) The salt and serum stability of polypeptides were determined by improved MIC method (Lv et al., [2014]). Peptides were incubated with BSA containing different final concentrations of salt ions (150 mM NaCl, 4.5 mM KCl, 6 μm NH4Cl, 8 μm ZnCl2, 1 mM MgCl2, 2 mM CaCl2, and 4 μm FeCl3) (Wang et al., [2018]). To determine the stability of the peptide in serum, peptide was incubated with different proportions of serum (50%, 100%) at 37°C for 4 h. The following steps are the same as those for antimicrobial activity. Each trial was conducted two times in parallel. A total of three independent assays were carried out.

S. aureus 29213 = assay type: cell-based, Staphylococcus aureus; conditions: 29213, 4 h
Description: as §4

| Substance | Therapeutic index (TI) / selectivity index (SI), All (all strains in Table 2) | MHC (concentration of peptide that causes hemolysis of 50% of human red blood cells) [2] [µM] | MIC, E. coli 25922 [3] [µM] | MIC, S. aureus 25923 [4] [µM] | MIC, S. aureus 43300 [5] [µM] | MIC, S. epidermidis 12228 [6] [µM] | MIC, P. aeruginosa PAO1 [7] [µM] | MIC, S. typhimurium 7731 [8] [µM] | MIC, S. aureus 29213 [9] [µM] | MIC, P. aeruginosa 27853 [10] [µM] | MIC, E. coli UB1005 (Escherichia coli UB1005) [µM] | MIC, E. faecalis 29212 [11] [µM] | MIC, S. typhimurium 14028 [12] [µM] | Therapeutic index (TI), Gram-positive bacteria (Gram-positive bacteria) | Therapeutic index (TI), Gram-negative bacteria (Gram-negative bacteria) | also measured |
| --- | --- | --- | --- | --- | --- | --- | --- | --- | --- | --- | --- | --- | --- | --- | --- | --- |
| ASVVKKWTKGWAKLLK-NH2 [TP(i+4) 1&2&6] | 3.89 | >128 | 4 | 128 | 64 | 64 | 8 | 32 | 64 | 32 | 8 | 128 | 16 | 1.50 | 10.08 | cell viability [1]: ~ 50% |
| ASVVKWLWKWVWKLLK-NH2 [TP(i+4) 1&2&5&7] | 2.76 | 64.00 | 16 | 16 | 16 | 8 | >128 | >128 | 8 | >128 | 16 | 8 | 32 | 6.06 | 1.26 | – |
| ASVVKKLTKGVAKLLK-NH2 [TP(i+4) 1&2] | 3.56 | – | 4 | >128 | >128 | >128 | 8 | 16 | >128 | 16 | 4 | >128 | 32 | 1.00 | 12.70 | MHC (concentration of peptide that causes hemolysis of 50% of human red blood cells) [13]: >128 µM; MIC after incubation with 100% serum (E. coli 25922): 32 µM; MIC in the presence of Ca2+ (E. coli 25922): >64 µM; MIC in the presence of Fe3+ (E. coli 25922): 8 µM; MIC in the presence of K+ (E. coli 25922): 8 µM; MIC in the presence of Mg2+ (E. coli 25922): 32 µM; MIC in the presence of NH4+ (E. coli 25922): 8 µM; MIC in the presence of Na+ (E. coli 25922): >64 µM; MIC in the presence of Zn2+ (E. coli 25922): 2 µM; MIC, Control (E. coli 25922): 4 µM; MIC after incubation with 100% serum (S. aureus 29213): >64 µM; MIC in the presence of Ca2+ (S. aureus 29213): >64 µM; MIC in the presence of Fe3+ (S. aureus 29213): >64 µM; MIC in the presence of K+ (S. aureus 29213): >64 µM; MIC in the presence of Mg2+ (S. aureus 29213): >64 µM; MIC in the presence of NH4+ (S. aureus 29213): >64 µM; MIC in the presence of Na+ (S. aureus 29213): >64 µM; MIC in the presence of Zn2+ (S. aureus 29213): >64 µM; MIC, Control (S. aureus 29213): >64 µM |
| ASVVKKWWKGWWKLLK-NH2 [TP(i+4) 1&2&5&6] | 13.30 | 64.00 | 1 | 16 | 8 | 8 | 4 | 4 | 8 | 4 | 2 | 8 | 2 | 6.96 | 25.40 | – |
| ASVVKWWTKWWAKLLK-NH2 [TP(i+4) 1&2&6&7] | 18.80 | 64.00 | 4 | 2 | 4 | 2 | 4 | 8 | 2 | 8 | 4 | 2 | 4 | 27.83 | 12.70 | – |
| AKVVNKLTKGVAKLLK-NH2 [TP(i+4) 2&3] | 1.41 | >128 | 32 | >128 | >128 | >128 | 128 | 128 | >128 | 128 | 8 | >128 | 128 | 1.00 | 2.00 | – |
| ASVVNKLTGGVAGLLK-NH2 [TP, reference compound] | 1.00 | – | >128 | >128 | >128 | >128 | >128 | >128 | >128 | >128 | >128 | >128 | >128 | 1.00 | 1.00 | MHC (concentration of peptide that causes hemolysis of 50% of human red blood cells) [13]: >128 µM |
| ASVVKWLTKWVAKLLK-NH2 [TP(i+4) 1&2&7] | 16.19 | 64.00 | 4 | 4 | 4 | 4 | 4 | 8 | 2 | 4 | 4 | 4 | 4 | 18.39 | 14.25 | – |
| ASVVKWWWKWWWKLLK-NH2 [TP(i+4) 1&2&5&6&7] | 3.10 | 8.00 | 1 | 4 | 4 | 2 | 4 | 4 | 2 | 4 | 2 | 2 | 2 | 3.03 | 3.17 | – |
